Reference: US5149865A, “New p-oxibenzoic acid derivatives, process for their preparation and their use as drug” (Klinge Pharma GmbH, priority 1991, dated 1992)

What was measured:
[1] = system: total cholesterol (TC) and triglyceride (TG) level in the rat serum; test: Determination of the hypolipidemic effect on rats (serum total cholesterol and triglycerides after oral administration); assay type: in vivo, normolipemic male Wistar rats; conditions: 100 mg/kg oral, three administrations over 3 days, groups of 10 male Wistar rats
Experimental: 1) Determination of the hypolipidemic effect on rats
The lipid-reducing effect of the test substances was examined on groups each of 10 normolipemic male Wistar rats weighing 200 to 220 g.
The tests were carried out after a 3-week retraining of the eating habits of the animals. The controlled feeding was carried out daily from 8 a.m. to 10 a.m. The test substances were administered at 11 a.m.
The test compounds were absorbed in an aqueous solution of 0.25% agar and 0.84% sodium chloride and administered orally. After three administrations over a period of 3 days blood was extracted from the animals. Cholesterol and triglycerides were determined in the serum with the aid of the "Cobas-Bio" centrifugal analyzer of Hoffmann-La Roche:
a) Cholesterol determination
CHOD-PAP method, enzymatic color test according to J. Siedel et al. (J. Clin. Chem. Clin. Biochem. 19, 838 (1981))
b) Triglyceride determination
Enzymatic cleavage of the triglycerides with the aid of special lipases with subsequent determination of the liberated glycerol according to T. O. Tiffany et al. (Clin. Chem. 20, 476 (1974))

[2] = system: cholesterol biosynthesis in rat liver homogenate; test: Determination of the inhibition of cholesterol synthesis in rat liver homogenate (14C acetate incorporation); assay type: biochemical
Experimental: 2) Determination of the inhibition of cholesterol synthesis
3 g freshly prepared rat liver were homogenized in 6 ml ice-cooled buffer and centrifuged at 20000 * g for 20 minutes. The supernatant was separated off and used for the following determinations.
10 μl of the methanolic test substance solution was pipetted into a mixture of 110 μl supernatant and 300 μl incubation solution and incubated at 37° C. for 20 minutes. Thereafter, 10 μl of a ^14 C acetate solution was pipetted in and incubated for a further 30 minutes. Thereafter, 500 μl ethanolic KOH solution was added to the mixture, further incubated for 60 minutes at 75° C. and thereafter the reaction stopped by cooling in an ice bath. To enable a yield correction to be made for the subsequent extraction of the ^14 C cholesterol forming, ^3 H cholesterol (≈10^-3) was added by pipetting. In addition, 500 μl of an ethanolic solution of cold cholesterol was added. The cholesterol of the mixture was extracted twice with 1 ml petroleum ether, the extract concentrated by evaporating to dryness and taken up in 0.6 ml of an ethanol acetone mixture (1/1). The dissolved cholesterol was then precipitated by means of 1.4 ml of a digitonin solution (=7 mg). After 15 hours at 0° C. the precipitate was centrifuged off, dissolved with 0.5 ml methanol/glacial acetic acid (33/5) and diluted with two ml methanol. The radioactivity of the resulting cholesterol was then determined in […] scintillation liquid (Dimilume) by means of a scintillation counter.
Buffer: 6.8 g KH2 PO4, 0.6 g MgCl2, 0.37 g EDTA, 1.83 g nicotine amide, 51.35 g saccharose and 0.44 ml mercaptoethanol were dissolved in distilled water and diluted to 500 ml (PH =7.2)
Incubation solution: The following were dissolved, in each case individually:
8.6 mg […] with 1.3 ml buffer
10.2 mg NADP with 1.3 ml buffer
39.6 mg glucose-6-phosphate with 0.65 ml buffer
31.6 μl glucose-6-phosphate dehydrogenase (1000 U/0.9 ml) with 0.285 buffer
These solutions were not mixed until immediately prior to use.
^14 C-acetate: Solution: 250 μCi ^14 C-Na-acetate was dissolved by means of 1 ml distilled water, Solution 2: 512.5 mg Na-acetate was dissolved in 10 ml distilled water.
Before the test, 0.1 ml of solution 1 and 0.4 ml of solution 2 were mixed and then mixed with 2 ml distilled water.
Ethanolic KOH: 10 g were dissolved in 100 ml ethanol.
Method: R. E. Dugan et al. Archives Bioch. Biophys. 152 21, (1972)

Row | Structure (SMILES) | Percentage change of total cholesterol (TC) level in the rat serum, X ± SD [1] | Percentage change of triglyceride (TG) level in the rat serum, X ± SD [1] | cholesterol biosynthesis in rat liver homogenate, % Control ([2]; 1*10^-4 Mole/l, 100 µM) | cholesterol biosynthesis in rat liver homogenate, % Control ([2]; 1*10^-5 Mole/l, 10 µM) | cholesterol biosynthesis in rat liver homogenate, % Control ([2]; 1*10^-6 Mole/l, 1 µM) | cholesterol biosynthesis in rat liver homogenate, % Control ([2]; 3*10^-4 Mole/l, 300 µM) | cholesterol biosynthesis in rat liver homogenate, % Control ([2]; 3*10^-5 Mole/l, 30 µM) | cholesterol biosynthesis in rat liver homogenate, % Control ([2]; 3*10^-6 Mole/l, 3 µM) | cholesterol biosynthesis in rat liver homogenate, % Control ([2]; 3*10^-7 Mole/l, 0.3 µM)
1 | CCOC(=O)C(C)(C)Oc1ccc(Cl)cc1 [Clofibrate, reference compound] | -14.5 + 12.0 % Change | -29.2 + 19.4 % Change | – | – | – | – | – | – | –
2 | CC(C)(C)c1ccc(C(O)CC(O)COc2ccc(C(=O)O)cc2)cc1 (single isomer, unassigned) [Diastereomer A, 1-(4'-tert.butylphenyl)-4-(4'-carboxyphenoxy)-butanediol-1,3] | -39.1 ± 15.5 % Change | -26.4 ± 13.1 % Change | 9 % Control | 36 % Control | 103 % Control | 2 % Control | 14 % Control | 97 % Control | 122 % Control
3 | CC(C)(C)c1ccc(C(O)CC(O)COc2ccc(C(=O)O)cc2)cc1 (single isomer, unassigned) [Diastereomer B, 1-(4'-tert.butylphenyl)-4-(4'-carboxyphenoxy)-butanediol-1,3] | -66.9 ± 8.6 % Change | -29.7 ± 15.5 % Change | – | 42 % Control | – | – | – | – | –
